Values of other authors in patent US8642030B2, “Compositions containing coenzyme Q-10 and dihydrolipoic acid” (EPC Europe GmbH, priority 2006, dated 2014).

Details: cited from earlier work

## COC1=C(OC)C(=O)C(C/C=C(\C)CC/C=C(\C)CC/C=C(\C)CC/C=C(\C)CC/C=C(\C)CC/C=C(\C)CC/C=C(\C)CC/C=C(\C)CC/C=C(\C)CCC=C(C)C)=C(C)C1=O [CoQ-10]
  solubility in most hydrophilic solvents such as water: sparingly soluble
